Measurements taken from paper PMC9115581, “Synthesis and Biological Evaluations of Betulinic Acid Derivatives With Inhibitory Activity on Hyaluronidase and Anti-Inflammatory Effects Against Hyaluronic Acid Fragment Induced Inflammation” (Frontiers in Chemistry, 2022).

Assays:
[1] = test system: LPS-stimulated RAW264.7 cells; assay: NO production (Griess assay) in LPS-stimulated RAW264.7 cells; format: cell-based, murine; conditions: for Reduction of LPS-stimulated NO production: 10 μM, LPS 1 μg/mL; for Decrease of NO production as compared to parent compound BA: LPS-stimulated
Protocol: (§1) NO concentration was determined by the Griess assay according to a previous report ([Ma et al., 2016]), RAW264.7 and BV-2 cells (20,000 cells per well) were plated into 96-well plates. After an incubation period of 24 h, the cells were pre-treated with BA derivatives for 2 h and were co-treated with LPS (1 μg/mL) for 24 h. For the LMWHAFs-induced inflammation assay, THP-1 cells were pre-treated with BA derivatives for 2 h and then treated with LPS (1 μg/mL) and HA fragment (a hyaluronan oligosaccharide 6mer; 50 μg/mL) from Amsbio (Rockville, MD, United States; product code: CSR-11002) for 24 h ([Campo et al., 2012]; [Scuruchi et al., 2016]). Subsequently, the culture medium was mixed with the Griess reagent in a 1:1 ratio followed by a 15 min incubation in the dark. An absorbance value was measured at 540 nm using a Spectramax M2 microplate reader, and the NO concentration was calculated based on the standard NO curve.

[2] = Cell viability of BV-2 cells; format: cell-based, murine; conditions: mouse, BV2 cells
Protocol: The cytotoxicity of each compound was determined in BV-2 and RAW264.7 cells with the MTT assay ([Li et al., 2020]). Briefly, cells were seeded in 96-well plates at 20,000 cells per well. Cells were allowed to adhere for 24 h. BA derivatives were prepared to 100 mM in DMSO, then diluted in serum-free media to yield concentrations of 10 µM. After the treatment of the cells with BA derivatives for 2 h, the cells were incubated in the absence or presence of LPS (1 μg/mL) for 24 h. Cellular viability was determined as a percentage of control (DMSO) by using a Cell Proliferation Kit II (Promega, Madison, WI, United States). XTT reagent (0.3 mg/mL) was then added to each well and incubated for 4 h at 37°C and an absorbance value was measured at 492 nm using a Spectramax M2 microplate reader ([Hayon et al., 2003]).

[3] = test system: HA fragment-stimulated THP-1 cells; assay: NO production in HA fragment (LMWHAFs) stimulated THP-1 cells; format: cell-based, human; conditions: 10 μM, HA fragment 6mer 50 μg/mL
Protocol: as §1

LPS-stimulated BV2 cells = assay: NO production (Griess assay) in LPS-stimulated BV2 cells; format: cell-based, murine; conditions: Mus musculus, BV-2, LPS 1 μg/mL
Protocol: as §1

[4] = test system: LPS-stimulated THP-1 cells; assay: IL-6 by ELISA in LPS-stimulated THP-1 cells; format: cell-based, human; conditions: 10 μM, LPS alone 695.6 pg/mL
Protocol: To evaluate the effect of BA derivatives on LPS-induced IL-6 secretion, THP-1 monocytes were seeded at a density of 50,000 cells per well in a 48-well plate and differentiated with PMA (25 ng/mL), pre-treated with the BA derivatives at concentrations of 10 μM was performed for 6 h followed by stimulation with or without 1 μg/mL LPS for 12 h. The cell culture supernatant was collected for the measurement of IL-6. The levels of IL-6 were determined using specific ELISA kits (BioLegend, San Diego, CA, United States) ([Liu et al., 2020]).

Structure (SMILES) | Reduction of LPS-stimulated NO production [1] | viability at 10 µM [2] | Reduction of LMWHAF-stimulated NO production [3] | inhibition at 10 µM (LPS-stimulated BV2 cells) | LPS-induced secretion of IL-6 [4] | Decrease of NO production as compared to parent compound BA [1]
C=C(C)[C@@H]1CC[C@]2(C(=O)O)CC[C@]3(C)[C@H](CC[C@@H]4[C@@]5(C)CC[C@H](O)C(C)(C)[C@@H]5CC[C@]43C)[C@@H]12 [BA, betulinic acid] | 20.4% | 110% | 12.4% | 3.4% | 613.3 pg/mL | –
C=C(C)[C@@H]1CC[C@]2(C(=O)O)CC[C@]3(C)[C@H](CC[C@@H]4[C@@]5(C)C/C(=C\c6ccccc6Br)C(=O)C(C)(C)[C@@H]5CC[C@]43C)[C@@H]12 [BA-02, (1R,3aS,5aR,5bR,7aR,11aR,11bR,13aR,13bR)-10-((E)-2-bromobenzylidene)-5a,5b,8,8,11a-pentamethyl-9-oxo-1-(prop-1-en-2-yl)icosahydro-3aH-cyclopenta[a]chrysene-3a-carboxylic acid] | – | – | – | – | 586.6 pg/mL | –
C=C(C)[C@@H]1CC[C@]2(C(=O)O)CC[C@]3(C)[C@H](CC[C@@H]4[C@@]5(C)C/C(=C\c6cc(OC)ccc6[N+](=O)[O-])C(=O)C(C)(C)[C@@H]5CC[C@]43C)[C@@H]12 [BA-03, (1R,3aS,5aR,5bR,7aR,11aR,11bR,13aR,13bR)-10-((E)-5-methoxy-2-nitrobenzylidene)-5a,5b,8,8,11a-pentamethyl-9-oxo-1-(prop-1-en-2-yl)icosahydro-3aH-cyclopenta[a]chrysene-3a-carboxylic acid] | 42.9% | – | – | – | 586.0 pg/mL | 2.3 fold
C=C(C)[C@@H]1CC[C@]2(C(=O)O)CC[C@]3(C)[C@H](CC[C@@H]4[C@@]5(C)C/C(=C\c6cc(F)ccc6[N+](=O)[O-])C(=O)C(C)(C)[C@@H]5CC[C@]43C)[C@@H]12 [BA-04, (1R,3aS,5aR,5bR,7aR,11aR,11bR,13aR,13bR)-10-((E)-5-fluoro-2-nitrobenzylidene)-5a,5b,8,8,11a-pentamethyl-9-oxo-1-(prop-1-en-2-yl)icosahydro-3aH-cyclopenta[a]chrysene-3a-carboxylic acid] | 32.3% | – | – | – | 539.6 pg/mL | –
C=C(C)[C@@H]1CC[C@]2(C(=O)O)CC[C@]3(C)[C@H](CC[C@@H]4[C@@]5(C)C/C(=C\c6ccccc6OC)C(=O)C(C)(C)[C@@H]5CC[C@]43C)[C@@H]12 [BA-05, (1R,3aS,5aR,5bR,7aR,11aR,11bR,13aR,13bR)-10-((E)-2-methoxybenzylidene)-5a,5b,8,8,11a-pentamethyl-9-oxo-1-(prop-1-en-2-yl)icosahydro-3aH-cyclopenta[a]chrysene-3a-carboxylic acid] | 38.5% | – | – | – | 589.8 pg/mL | –
C=C(C)[C@@H]1CC[C@]2(C(=O)O)CC[C@]3(C)[C@H](CC[C@@H]4[C@@]5(C)C/C(=C\c6cccc(OC)c6)C(=O)C(C)(C)[C@@H]5CC[C@]43C)[C@@H]12 [BA-09] | – | – | – | 36% | – | –
C=C(C)[C@@H]1CC[C@]2(C(=O)O)CC[C@]3(C)[C@H](CC[C@@H]4[C@@]5(C)C/C(=C\c6cccc(C(F)(F)F)c6)C(=O)C(C)(C)[C@@H]5CC[C@]43C)[C@@H]12 [BA-11, (1R,3aS,5aR,5bR,7aR,11aR,11bR,13aR,13bR)-5a,5b,8,8,11a-pentamethyl-9-oxo-1-(prop-1-en-2-yl)-10-((E)-3-(trifluoromethyl)benzylidene)icosahydro-3aH-cyclopenta[a]chrysene-3a-carboxylic acid] | 33.4% | – | 11.3% | 7.7% | – | –
C=C(C)[C@@H]1CC[C@]2(C(=O)O)CC[C@]3(C)[C@H](CC[C@@H]4[C@@]5(C)C/C(=C\c6ccc(OC)cc6)C(=O)C(C)(C)[C@@H]5CC[C@]43C)[C@@H]12 [BA-13, (1R,3aS,5aR,5bR,7aR,11aR,11bR,13aR,13bR)-10-((E)-4-methoxybenzylidene)-5a,5b,8,8,11a-pentamethyl-9-oxo-1-(prop-1-en-2-yl)icosahydro-3aH-cyclopenta[a]chrysene-3a-carboxylic acid] | 46.4% | – | 35.6% | 33.6% | – | 2.1 fold
